Here are results for 4 compounds from paper PMC7570852, “Ruthenium(II)/(III) DMSO-Based Complexes of 2-Aminophenyl Benzimidazole with In Vitro and In Vivo Anticancer Activity” (Molecules, 2020).

Data set [1] deals with human colorectal cancer (Caco2) cells. The data set can be described thus: MTT cell viability assay, Caco2. The note with it: for Therapeutic index: IC50 of THLE-2 cell/IC50 of Caco2: in vitro. The data set is classed as cell-based. As for the experimental part: (§1) The cytotoxic effect of the Hapbim ligand and its complexes (1) and (2) on human breast cancer (MCF7), human colorectal cancer (Caco2), and human normal liver (THLE-2) cell lines was evaluated by the MTT assay. The cells were cultured in a 96-well plate (1 × 10^4 cells/well, 100 μL/well) containing DMEM medium provided with 10% fetal bovine serum, and 1% penicillin/streptomycin. Then, the cells were incubated at 37 °C for 24 h in a CO2 incubator under 5% CO2, 95% air until reaching a confluence of 70–80%. A 20 μL volume of each compound at different concentrations (from 5 to 400 μM for the cancer cell and from 600 to 1000 μM for the normal cells) was added and the cells were re-incubated for a further 24 h. After the incubation period, the cells were incubated again with 5 mg/mL of MTT for 4 h and then the medium was replaced with 100 μL DMSO and vortexed for 20 min. Finally, the absorbance was recorded at 570 nm using the microplate reader. […] To calculate the cell inhibition percentage, the following equation was used:% Cell inhibition = 100 − % cell viability ((At − Ab)/(Ac − Ab)) × 100%)(4) where At is the absorbance value of tested compound; Ab is the absorbance value of blank; Ac is the absorbance value of the control.

Data set [2] concerns human breast cancer (MCF7) cells. As to the kind of experiment: MTT cell viability assay, MCF7. The data set is classed as cell-based. The note with it: for IC50: read-out: IC50 MCF-7. The procedure: as §1
In general terms: Tetrazolium dyes change colour on reduction, which living cells bring about.

For data set [3], the system named is Ehrlich ascites carcinoma (EAC) cells. The arrangement: method as in PMID 28599251. The note with it: literature comparison; cited from earlier work.
A short description of data set [4]: Solution stability by UV-Vis spectroscopy. Format: physicochemical. The note with it: 4% DMSO, 96% PBS, pH 7.4, over 24 h. As for the experimental part:
Stability studies of complexes (1) and (2) were carried out by UV-Vis spectroscopy in the 200–900 nm range. […] The electronic spectra for the solutions were measured over 24 h.

Data set [5] has as its system CT DNA (EB-DNA adduct). The data set can be described thus: Ethidium bromide (EB-DNA) competitive fluorescence assay. The note with it: [DNA] = [EB] = 5 μM. The data set is classed as binding, calf. As for the experimental part:
The binding affinity of the metal complexes towards CT DNA was evaluated using competitive fluorescence studies. CT DNA pretreated with ethidium bromide (EB) ([DNA] = [EB] = 5 μM) in Tris-HCl/NaCl buffer (pH = 7.2) was incubated with the complexes in concentrations of 0–90 μM. […] The quenching of EB-DNA adduct fluorescence was followed by monitoring the emission spectra in the wavelength range of 530–650 nm. Upon addition of the metal complexes to the EB-DNA adduct, the quenching binding constant (Kq) at λ = 585 nm is determined from the Stern-Volmer Equation (2):I0/I = 1 + Kq[Q](2) where I0 and I are the fluorescence intensities of EB-DNA in the […] of the metal complexes, respectively, [Q] is the concentration of the tested compounds, and Kq is the quenching constant calculated from the slope of the straight line obtained from plotting Io/I vs. [Q]. In addition, the apparent binding constant can be calculated from Equation (3):KEB[EB] = Kapp[Q](3) where KEB = 1 × 10^7 M^−1 [EB] is the ethidium bromide concentration (5 μM) and [Q] is the concentration of the quencher that provides a 50% intensity reduction of the initial EB-DNA adduct.

The nature of data set [6]: Cyclic voltammetry. The data set is classed as physicochemical. The note with it: 10^−3 M in CH2Cl2/DMSO, 0.1 M (Bu4N)PF6, scan rate 50 mVs^−1. The procedure:
Elemental analyses (C, H, N) were performed by the Microanalysis unit in the Department of Chemistry at Simon Fraser University. Infrared spectra (FTIR) were performed on a JASCO 4100 FTIR spectrophotometer in the 4000–400 cm^−1 range using a KBr disc. NMR (^1H and ^13C) spectra were recorded in DMSO-d6 solvent using a Bruker 400 MHz instrument. The 2D NMR analysis (^1H–^1H COSY) was performed on a Jeol 500 MHz NMR, at Mansoura University. ESI/APCI HRMS data were acquired on a Thermo Scientific Exactive Plus Orbitrap mass spectrometer. Electronic spectra (in DMSO, 200–900 nm) were measured on a JASCO 630 V spectrophotometer. Emission spectra of the complexes were measured on a Jenway model 6285 spectrofluorimeter for excitation and emission spectra, 200–700 nm. The magnetic susceptibility of the complexes was measured on a Johnson Matthey magnetic susceptibility balance. […] A microplate reader (StatFax-2100, Awareness Technology, Inc., Palm City, FA, USA), Attune flow cytometer (Applied Biosystems, Foster City, CA, USA), Quawell nanodrop Q5000 (San Jose, CA, USA), StepOnePlus real time PCR system (Applied Biosystems, Foster City, CA, USA), and CO2 incubator (NuAire In-Vitro Cell, Plymouth, MN, USA) were used in biological studies.

Converted amounts (≈) assume the structure as drawn. “And” between values parts separate entries of the source, which are not always exact repeats. Equal values may be shown once. Read-outs that look alike come from different tables or passages of the source.

The IC50 is the concentration that gives 50% inhibition. With `Nc1ccccc1-c1nc2ccccc2[nH]1` [Hapbim, 2-aminophenyl benzimidazole], the IC50 in data set [1] (Homo sapiens, Caco-2, MTT, 24 h) was 80 µg/mL and 380 µM; in data set [2] (Homo sapiens, MCF7, 24 h) it was 61 µg/mL and 290 µM. Moreover, the “Therapeutic index: IC50 of THLE-2 cell/IC50 of Caco2” value in data set [1] is reported as 14.2.

Take `CN(Cc1cnc2nc(N)nc(N)c2n1)c1ccc(C(=O)N[C@@H](CCC(=O)O)C(=O)O)cc1` [methotrexate]: the “IC50 against EAC cells” value in data set [3] is 98 ± 2 µg/mL (≈ 216 µM).

`N.N.[Cl][Pt][Cl]` [Cisplatin, reference compound]: in data set [2] (24 h), the “IC50 MCF-7” value was determined as 22 ± 1 µg/mL and the IC50 is 73 ± 5 µM.

As for [Ru(II)Cl2(DMSO)2(Hapbim)] [(1)], in data set [4], the “solution stability (UV-Vis spectral change)” value was “remain relatively unchanged over the first two hours”. The “Kapp (apparent binding constant)” value in data set [5] (KEB = 1 × 10^7 M^−1) is 1.08 ± 0.11 × 10^7 M^−1. The “Kq (quenching constant)” value in data set [5] (Stern-Volmer, 585 nm) is reported as 1.96 ± 0.04 × 10^3 M^−1. The “E1/2 (Ru(II)/Ru(III) redox couple)” value in data set [6] is on record as 615 mV. In data set [1] (MTT, 24 h), the midpoint of inhibition, the IC50, lay at 290 ± 20 µM and the “IC50 Caco2” value stood at 155 ± 9 µg/mL. Besides, the “Therapeutic index: IC50 of THLE-2 cell/IC50 of Caco2” value in data set [1] turned out to be 6.4. Besides, in data set [2] (24 h), the “IC50 MCF-7” value is 170 ± 10 µg/mL and the IC50 was determined as 320 ± 20 µM.
